Tests used:
[1] = tested on: ZO1, Slug, Snail, N-cadherin, Vimentin mRNA in H460 cells; experiment: mRNA of EMT markers by Real-time qPCR; assay type: cell-based, human; conditions: H460, 1 μM and 2.5 µM
Method: Therefore, the effect of DH_31 on targeting, the DNA-binding domain of STAT3, may represent an impact on downstream targets at the transcriptional level (Figure 8A). The expression levels of ZO1, Slug, Snail, N-cadherin, and Vimentin were analyzed using Real-time qPCR.
Quantitative Real-time PCR was performed to determine the effect of DH_31 on mRNA levels of STAT3 and EMT-related genes. H460 cells (4.0 × 10^5 cells per well) were seeded in 6-well plates. Following overnight incubation, the cells were treated with different concentrations of DH_31 (0–2.5 μM)) for 8 h at 37 °C. After treatment, total RNA was isolated using the RNeasy kit (Qiagen, Germany) and subsequently subjected to cDNA synthesis using qScript cDNA Supermix (Quanta bio, Beverly, MA, USA), following the manufacturers’ protocols. Real-time qPCR was performed using Luna Universal qPCR Master Mix (NEB, Ipswich, MA, USA) and the CFX 96 Real-time PCR system (Bio-Rad, Hercules, CA, USA). The expression of each cDNA was normalized to that of β-actin, and the comparative Ct method was used to obtain relative expression levels. The primers used for Real-time PCR are shown in the in the Supporting Information, Table S1. The list of primers.

[2] = tested on: EMT markers (ZO1, ZEB1, Slug, Snail, N-cadherin, Vimentin) in H460 cells; experiment: Immunofluorescence staining of EMT markers; assay type: cell-based, human
Description: EMT is a biological process that is associated with cancer progression and the spread of cancer cells to other parts of the body. This mechanism facilitates the motility of cancer cells, enhances anoikis resistance, and contributes to poor prognosis due to its high metastatic potential. Given the critical role of EMT in the metastasis processes, we firstly investigated EMT markers. Therefore, to validate that DH_31 inhibits metastasis, H460 cells were selected to elucidate the mechanism because of their enhanced migration and invasion behavior [36]. H460 cells were exposed to the non-toxic concentration range of 0–2.5 µM of DH_31 for 24 h. Subsequently, the evaluation of EMT expression levels was carried out through the application of immunofluorescence assay and Western blotting. We further investigated key hallmarks of EMT, specifically the reduction in the expression levels of epithelial marker (ZO1) and the increase in the expression levels of mesenchymal markers (Slug, Snail, ZEB1, N-cadherin, and Vimentin). […] The expressions of Snail, N-cadherin, and Vimentin were reduced in a concentration-dependent manner. […] Furthermore, the results from the Western blot analysis confirmed the findings from immunofluorescence staining (Figure 3C). […] The protein alterations in response to DH_31 were clarified.
Immunofluorescence staining and confocal microscopy were conducted to visualize the subcellular localization and spatial distribution of specific proteins. H460 cells (1.0 × 10^4 cells per well) were seeded in 96-well plates. Following overnight incubation, the cells were treated with different concentrations of DH_31 (0–2.5 μM) for 24 h at 37 °C. After treatment, the cells were permeabilized with 0.5% Triton-X in PBS for 5 min, followed by the blocking of non-specific proteins with 10% FBS in 0.1% Triton-X PBS for 1 h at room temperature. Subsequently, the cells were exposed to primary antibodies (STAT3, Slug, Snail, Vimentin, N-cadherin, ZO1, and ZEB1) and incubated at 4 °C overnight. The cells were then incubated with Alexa Fluor 488- or 594-conjugated secondary antibodies and Hoechst 33342 for 1 h at room temperature. After washing with PBS, the cells were covered with 50% glycerol. The images were captured by confocal microscopy (Zeiss, Jena, Germany). The fluorescence intensity was measured using ImageJ™ software (Image J 1.52a, Rasband, W., National Institutes of Health, Bethesda, MD, USA).

[3] = tested on: STAT3 mRNA; experiment: STAT3 mRNA by Real-time qPCR; assay type: cell-based, human; conditions: H460, 0–2.5 μM, 8 h
Method: (§1) To explore whether the reduction in total STAT3 protein after DH_31 treatments (as shown in Figure 5B–E) occurs at the mRNA or protein levels, we first investigated mRNA levels using Real-time qPCR. […] To evaluate whether DH_31 affects STAT3 stability, pretreatment with MG132, a potent selective proteasome inhibitor, was performed. H460 cells were pretreated with or without MG132 (10 μM) for 1 h and then cells were either treated with DH_31 for 6 h or left untreated. […] The proteasome can recognize and degrade protein targets that are conjugated by single or poly-ubiquitin molecules. To investigate the ubiquitination level of STAT3 with DH_31 treatments, the ubiquitination level was evaluated using immunoprecipitation and Western blot analysis of the STAT3–ubiquitin complex in the lung cancer cells treated with DH_31 and in untreated cells.
Quantitative Real-time PCR was performed to determine the effect of DH_31 on mRNA levels of STAT3 and EMT-related genes. H460 cells (4.0 × 10^5 cells per well) were seeded in 6-well plates. Following overnight incubation, the cells were treated with different concentrations of DH_31 (0–2.5 μM)) for 8 h at 37 °C. After treatment, total RNA was isolated using the RNeasy kit (Qiagen, Germany) and subsequently subjected to cDNA synthesis using qScript cDNA Supermix (Quanta bio, Beverly, MA, USA), following the manufacturers’ protocols. […]

[4] = molecular target: T1, STAT3 (Homo sapiens, UniProt P40763); experiment: STAT3 proteasomal degradation, Western blot with or without MG132; assay type: cell-based; conditions: H460, 1 and 2.5 µM, 6 h, without MG132 (p < 0.05)
T1 construct: endogenous in cells; host or cells: NCI-H460 (ATCC HTB-177)
T1 sequence (P40763 whole entry): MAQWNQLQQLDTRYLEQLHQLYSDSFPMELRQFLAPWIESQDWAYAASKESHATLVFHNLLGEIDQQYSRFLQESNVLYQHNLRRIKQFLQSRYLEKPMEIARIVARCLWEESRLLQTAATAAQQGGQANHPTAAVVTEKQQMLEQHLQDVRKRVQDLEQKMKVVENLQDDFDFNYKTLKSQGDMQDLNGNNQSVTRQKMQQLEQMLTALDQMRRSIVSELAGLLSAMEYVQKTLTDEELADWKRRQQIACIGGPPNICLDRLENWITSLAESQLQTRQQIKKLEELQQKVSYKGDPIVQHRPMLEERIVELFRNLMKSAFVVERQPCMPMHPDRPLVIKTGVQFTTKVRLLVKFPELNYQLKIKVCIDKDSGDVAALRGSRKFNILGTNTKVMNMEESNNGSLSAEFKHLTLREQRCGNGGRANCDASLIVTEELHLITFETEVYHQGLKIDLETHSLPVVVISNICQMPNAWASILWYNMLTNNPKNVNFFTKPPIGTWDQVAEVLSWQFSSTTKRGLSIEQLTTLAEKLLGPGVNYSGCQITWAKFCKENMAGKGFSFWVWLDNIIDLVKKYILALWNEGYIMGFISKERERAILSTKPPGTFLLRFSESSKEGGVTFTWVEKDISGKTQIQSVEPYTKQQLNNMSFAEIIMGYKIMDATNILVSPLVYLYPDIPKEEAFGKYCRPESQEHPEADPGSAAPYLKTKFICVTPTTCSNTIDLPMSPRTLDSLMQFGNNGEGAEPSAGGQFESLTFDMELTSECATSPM
Method: as §1
Immunoprecipitation assay was performed to investigate ubiquitin–proteasomal degradation, shedding light on the regulatory mechanisms involved. H460 cells (4.0 × 10^5 cells per well) were seeded in 6-well plates. Following overnight incubation, the cells were pretreated with 10 μM of a proteasome inhibitor, MG132, for 1 h to prevent proteasomal degradation, and then were treated with different concentrations of DH_31 (0–2.5 μM) for 6 h. After treatment, the cells were lysed as described above. Immunoprecipitation was carried out using the Dynabeads™ Protein G Immunoprecipitation kit, following the manufacturers’ protocols. The magnetic beads were coated with the rabbit anti-STAT3, then incubated with whole-cell lysate and mixed gently overnight at 4 °C. After washing, the supernatant containing the antibody–antigen complex was used to perform Western blot analysis to detect the ubiquitinated STAT3 protein.

Question: How did the “ZO1 mRNA expression” value ([1]; 8 h (p < 0.01)) turn out when `COc1c(C)cc2c(c1O)[C@@H]1CN(Cc3ccc4ccccc4c3)[C@@H](C#N)[C@H](C2)N1C` [DH_31, (1R,4R,5S)-10-hydroxy-9-methoxy-8,11-dimethyl-3-(naphthalen-2-ylmethyl)-1,2,3,4,5,6-hexahydro-1,5-epiminobenzo[d]azocine-4-carbonitrile] was run?
Answer: significant increase

Question: What about the “N-cadherin mRNA expression” value ([1]; 8 h (p < 0.05)) of the same molecule?
Answer: significant reduction

Question: And the “Slug mRNA expression” value ([1]; 8 h (p < 0.05))?
Answer: significant reduction

Question: What about the “Snail mRNA expression” value ([1]; 8 h (p < 0.05)) of the same molecule?
Answer: significant reduction

Question: What about the “Vimentin mRNA expression” value ([1]; 8 h (p < 0.05)) of the same molecule?
Answer: significant reduction

Question: And the “ZO1 level (immunofluorescence)” value ([2]; H460, 0–2.5 µM, 24 h)?
Answer: slightly increased

Question: And the “Vimentin level (immunofluorescence)” value ([2]; H460, 1 μM (p < 0.01) and 2.5 μM (p < 0.001), 24 h)?
Answer: significant reduction

Question: And the “N-cadherin level (immunofluorescence)” value ([2]; H460, 1 μM (p < 0.05) and 2.5 μM (p < 0.001), 24 h)?
Answer: significant reduction

Question: And the “Snail level (immunofluorescence)” value ([2]; H460, 1 μM and 2.5 μM, 24 h (p < 0.05))?
Answer: significant reduction

Question: And the “Slug protein level (immunofluorescence)” value ([2]; H460, 2.5 µM, 24 h (p < 0.05))?
Answer: significant decrease

Question: And the “ZEB1 protein level (immunofluorescence)” value ([2]; H460, 2.5 µM, 24 h (p < 0.05))?
Answer: significant decrease

Question: What about the “mRNA expression of STAT3” value [3] of the same molecule?
Answer: did not change significantly

Question: What about the “STAT3 protein levels (Western blot)” value [4] of the same molecule?
Answer: significantly reduced

From paper PMC11355573, “A New Renieramycin T Right-Half Analog as a Small Molecule Degrader of STAT3” (Marine Drugs, 2024)
